Data from paper PMC9841523 (Journal of Medicinal Chemistry, 2022).

Experiments:
NCI-H2122 NSCLC CDX = NCI-H2122 NSCLC CDX model; type: in vivo; settings: RMC-6272 10 mg/kg ip once weekly; sotorasib 100 mg/kg po qd; single agents or combination
Experimental: groups when mean tumor volume reached 400–600 mm 3. Tumor and plasma samples were collected for PK and PD analysis at indicated time points after a single dose of indicated […]
doses. Everolimus was formulated in v/v/v/, 30/5/65 Propylene glycol/Tween 80/H 2O.
NCI-H2122 xenograft studies. Female Balb/c nude mice (Beijing V.R Biotechnology Co. […]
per inoculation. When mean tumor volume reached between 150–200 mm 3, mice were […]
Transcutol/Solutol HS 15/H 2O. Sotorasib (AMG 510) was administered by oral gavage at 100 mg/kg daily and formulated in 2% (w/v) HPMC E-50, 0.5% Tween 80 in 50 mM sodium citrate […]
In vivo pharmacodynamics. Snap frozen tumors collected were homogenized with MSD complete lysis buffer (as prepared according to Meso Scale Discovery kit protocol) using PreCellys Bead Shaker (Bertin Instruments) according to manufacturer's protocol. Phospho-4E-BP1(Thr37/46) Whole Cell Lysate Kit (Meso Scale Discovery) was used to quantify phosphorylation of 4E-BP1 in the tumors according to manufacturer's protocol.
Expression and purification of FKBP12, FRB domain, and RHEB-GTPγS. DNA pET28

[1] = tested on: AKT S473 phosphorylation (mTORC2); test: AlphaLISA/MSD analysis of AKT phosphorylation in MDA-MB-468 cells; type: cell-based; settings: Homo sapiens, MDA-MB-468, read-out: pAKT IC50
[2] = target: T1, A2A(h) (agonist radioligand) (Homo sapiens, UniProt P29274); test: Eurofins Safety Screen 44; type: binding; settings: read-out: % Inhibition of Control Values
T1 construct: purchased ActivX Biosciences (KiNativ)

[3] = target: T2, β1(h) (agonist radioligand) (Homo sapiens, UniProt P08588); test: Eurofins Safety Screen 44; type: binding; settings: read-out: % Inhibition of Control Values
T2 construct: purchased ActivX Biosciences (KiNativ)

[4] = tested on: BZD (central) (agonist radioligand); test: Eurofins Safety Screen 44; type: binding; settings: 10 µM
[5] = target: T3, CB1(h) (agonist radioligand) (Homo sapiens, UniProt P21554); test: Eurofins Safety Screen 44; type: binding; settings: read-out: % Inhibition of Control Values
T3 construct: purchased ActivX Biosciences (KiNativ)

[6] = target: T4, CB2(h) (agonist radioligand) (Homo sapiens, UniProt P34972); test: Eurofins Safety Screen 44; type: binding; settings: read-out: % Inhibition of Control Values
T4 construct: purchased ActivX Biosciences (KiNativ)

[7] = target: T5, N neuronal α4β2 (h) (agonist radioligand) (Homo sapiens, UniProt P17787+P43681); test: Eurofins Safety Screen 44; type: binding; settings: read-out: % Inhibition of Control Values
T5 construct: purchased ActivX Biosciences (KiNativ)

[8] = target: T6, V1a(h) (agonist radioligand) (Homo sapiens, UniProt P37288); test: Eurofins Safety Screen 44; type: binding; settings: read-out: % Inhibition of Control Values
T6 construct: purchased ActivX Biosciences (KiNativ)

[9] = tested on: KV channel (antagonist radioligand); test: Eurofins Safety Screen 44; type: binding; settings: 10 µM
Lck kinase (h) = target: T7, Lck kinase (h) (Homo sapiens, UniProt P06239); test: Eurofins Safety Screen 44; type: biochemical; settings: read-out: % Inhibition of Control Values
T7 construct: Eurofins (ran the panel)

acetylcholinesterase (h) = target: T8, acetylcholinesterase (h) (Homo sapiens, UniProt P22303); test: Eurofins Safety Screen 44; type: biochemical; settings: read-out: % Inhibition of Control Values
T8 construct: Eurofins (ran the panel)
T8 sequence (P22303 32-614): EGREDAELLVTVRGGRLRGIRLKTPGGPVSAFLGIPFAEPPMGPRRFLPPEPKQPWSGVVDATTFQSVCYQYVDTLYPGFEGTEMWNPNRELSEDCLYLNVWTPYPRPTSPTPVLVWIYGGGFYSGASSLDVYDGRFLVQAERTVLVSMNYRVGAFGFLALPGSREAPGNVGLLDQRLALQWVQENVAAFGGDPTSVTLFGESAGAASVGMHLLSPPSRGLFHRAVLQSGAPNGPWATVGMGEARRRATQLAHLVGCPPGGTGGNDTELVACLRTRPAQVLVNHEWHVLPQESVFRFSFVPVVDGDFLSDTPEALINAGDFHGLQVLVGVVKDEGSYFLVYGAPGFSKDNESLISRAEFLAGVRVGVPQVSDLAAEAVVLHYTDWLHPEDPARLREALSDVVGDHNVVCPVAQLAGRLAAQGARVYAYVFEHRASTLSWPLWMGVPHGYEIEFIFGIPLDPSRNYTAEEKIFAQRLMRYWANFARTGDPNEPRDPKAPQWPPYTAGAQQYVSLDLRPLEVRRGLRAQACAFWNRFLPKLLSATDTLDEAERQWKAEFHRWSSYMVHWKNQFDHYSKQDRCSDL

T4 sequence (P34972 whole entry): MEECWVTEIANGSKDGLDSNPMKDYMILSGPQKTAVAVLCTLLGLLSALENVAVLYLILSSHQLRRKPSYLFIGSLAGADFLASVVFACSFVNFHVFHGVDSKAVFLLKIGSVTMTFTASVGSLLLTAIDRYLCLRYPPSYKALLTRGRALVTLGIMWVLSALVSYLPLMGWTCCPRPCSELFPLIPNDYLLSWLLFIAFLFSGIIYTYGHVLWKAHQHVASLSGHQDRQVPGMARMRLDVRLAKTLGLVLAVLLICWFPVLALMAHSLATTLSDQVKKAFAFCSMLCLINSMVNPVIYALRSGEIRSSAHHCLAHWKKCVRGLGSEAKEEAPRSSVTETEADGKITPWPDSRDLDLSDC
T1 sequence (P29274 whole entry): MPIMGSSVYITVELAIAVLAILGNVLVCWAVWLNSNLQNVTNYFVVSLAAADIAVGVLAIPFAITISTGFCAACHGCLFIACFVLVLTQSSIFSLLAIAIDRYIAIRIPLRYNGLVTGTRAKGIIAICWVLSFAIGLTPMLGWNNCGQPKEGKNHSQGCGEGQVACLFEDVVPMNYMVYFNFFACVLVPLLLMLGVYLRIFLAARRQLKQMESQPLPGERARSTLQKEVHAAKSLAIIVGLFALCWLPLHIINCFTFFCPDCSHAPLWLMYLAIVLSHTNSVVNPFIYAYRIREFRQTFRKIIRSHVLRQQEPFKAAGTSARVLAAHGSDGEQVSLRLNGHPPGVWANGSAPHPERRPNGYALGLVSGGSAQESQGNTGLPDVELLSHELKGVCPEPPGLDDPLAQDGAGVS
T6 sequence (P37288 whole entry): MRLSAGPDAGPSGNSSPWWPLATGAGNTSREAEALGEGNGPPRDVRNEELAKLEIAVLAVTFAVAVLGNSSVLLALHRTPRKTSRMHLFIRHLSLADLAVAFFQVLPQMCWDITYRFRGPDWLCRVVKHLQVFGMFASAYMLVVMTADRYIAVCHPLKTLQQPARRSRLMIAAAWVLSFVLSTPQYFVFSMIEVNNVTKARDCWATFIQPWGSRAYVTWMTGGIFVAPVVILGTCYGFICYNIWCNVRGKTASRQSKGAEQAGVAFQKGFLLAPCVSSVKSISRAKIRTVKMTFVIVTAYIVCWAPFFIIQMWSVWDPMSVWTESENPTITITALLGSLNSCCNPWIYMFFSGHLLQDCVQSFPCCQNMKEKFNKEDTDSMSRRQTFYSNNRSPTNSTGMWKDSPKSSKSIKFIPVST
T5 sequence (P43681 29-627 limits assumed): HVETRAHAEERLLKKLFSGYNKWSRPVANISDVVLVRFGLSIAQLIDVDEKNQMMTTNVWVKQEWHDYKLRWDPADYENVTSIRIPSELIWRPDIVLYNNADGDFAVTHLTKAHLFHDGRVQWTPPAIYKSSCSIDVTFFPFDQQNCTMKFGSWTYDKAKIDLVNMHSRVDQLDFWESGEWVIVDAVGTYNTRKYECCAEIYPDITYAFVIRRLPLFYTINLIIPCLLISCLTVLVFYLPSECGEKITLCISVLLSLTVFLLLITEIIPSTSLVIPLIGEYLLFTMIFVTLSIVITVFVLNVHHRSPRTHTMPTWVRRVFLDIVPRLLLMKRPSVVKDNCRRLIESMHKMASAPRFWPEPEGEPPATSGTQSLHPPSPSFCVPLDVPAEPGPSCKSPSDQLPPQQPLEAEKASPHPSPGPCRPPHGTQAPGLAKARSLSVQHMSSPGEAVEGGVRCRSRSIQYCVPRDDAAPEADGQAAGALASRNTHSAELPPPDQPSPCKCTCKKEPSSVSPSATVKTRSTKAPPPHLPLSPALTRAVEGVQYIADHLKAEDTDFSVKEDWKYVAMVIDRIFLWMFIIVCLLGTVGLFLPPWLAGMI
T5 sequence (P17787 26-502): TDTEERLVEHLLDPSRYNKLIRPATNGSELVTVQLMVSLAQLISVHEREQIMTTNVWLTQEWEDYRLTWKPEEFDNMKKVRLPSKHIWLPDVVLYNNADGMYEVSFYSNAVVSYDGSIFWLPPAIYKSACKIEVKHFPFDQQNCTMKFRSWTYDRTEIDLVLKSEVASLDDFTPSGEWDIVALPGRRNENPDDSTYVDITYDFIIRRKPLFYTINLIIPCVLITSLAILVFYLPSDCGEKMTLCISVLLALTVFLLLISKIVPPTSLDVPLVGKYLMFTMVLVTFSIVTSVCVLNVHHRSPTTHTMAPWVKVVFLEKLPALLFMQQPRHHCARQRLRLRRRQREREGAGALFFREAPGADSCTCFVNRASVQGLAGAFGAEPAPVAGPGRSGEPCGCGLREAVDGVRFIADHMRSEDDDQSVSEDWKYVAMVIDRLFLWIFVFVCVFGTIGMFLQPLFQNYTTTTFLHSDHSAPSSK
T7 sequence (P06239 whole entry): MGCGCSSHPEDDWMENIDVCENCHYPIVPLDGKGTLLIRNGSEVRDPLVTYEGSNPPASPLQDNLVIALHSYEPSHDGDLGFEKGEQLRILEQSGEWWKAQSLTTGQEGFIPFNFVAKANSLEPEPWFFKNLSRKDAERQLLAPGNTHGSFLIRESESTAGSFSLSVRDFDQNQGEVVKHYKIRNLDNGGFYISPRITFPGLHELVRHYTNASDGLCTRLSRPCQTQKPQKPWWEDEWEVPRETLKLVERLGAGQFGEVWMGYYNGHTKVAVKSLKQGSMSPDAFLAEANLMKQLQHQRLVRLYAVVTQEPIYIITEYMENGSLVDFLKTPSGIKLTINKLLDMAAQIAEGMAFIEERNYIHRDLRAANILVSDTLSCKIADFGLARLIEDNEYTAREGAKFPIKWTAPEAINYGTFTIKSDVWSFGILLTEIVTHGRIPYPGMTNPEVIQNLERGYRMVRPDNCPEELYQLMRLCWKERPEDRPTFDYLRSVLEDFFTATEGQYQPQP
T3 sequence (P21554 whole entry): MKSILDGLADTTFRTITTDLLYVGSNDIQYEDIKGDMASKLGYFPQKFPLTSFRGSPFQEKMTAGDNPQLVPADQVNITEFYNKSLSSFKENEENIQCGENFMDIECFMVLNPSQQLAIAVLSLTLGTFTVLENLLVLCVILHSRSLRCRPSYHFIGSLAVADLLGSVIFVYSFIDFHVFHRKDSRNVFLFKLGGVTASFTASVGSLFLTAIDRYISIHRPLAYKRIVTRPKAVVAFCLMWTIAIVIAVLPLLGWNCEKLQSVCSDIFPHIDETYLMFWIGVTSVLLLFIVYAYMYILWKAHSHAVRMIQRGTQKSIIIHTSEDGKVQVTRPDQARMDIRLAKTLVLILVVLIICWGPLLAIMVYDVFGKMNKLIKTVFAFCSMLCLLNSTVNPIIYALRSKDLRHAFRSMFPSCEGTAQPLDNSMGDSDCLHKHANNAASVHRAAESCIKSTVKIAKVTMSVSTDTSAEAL
T2 sequence (P08588 whole entry): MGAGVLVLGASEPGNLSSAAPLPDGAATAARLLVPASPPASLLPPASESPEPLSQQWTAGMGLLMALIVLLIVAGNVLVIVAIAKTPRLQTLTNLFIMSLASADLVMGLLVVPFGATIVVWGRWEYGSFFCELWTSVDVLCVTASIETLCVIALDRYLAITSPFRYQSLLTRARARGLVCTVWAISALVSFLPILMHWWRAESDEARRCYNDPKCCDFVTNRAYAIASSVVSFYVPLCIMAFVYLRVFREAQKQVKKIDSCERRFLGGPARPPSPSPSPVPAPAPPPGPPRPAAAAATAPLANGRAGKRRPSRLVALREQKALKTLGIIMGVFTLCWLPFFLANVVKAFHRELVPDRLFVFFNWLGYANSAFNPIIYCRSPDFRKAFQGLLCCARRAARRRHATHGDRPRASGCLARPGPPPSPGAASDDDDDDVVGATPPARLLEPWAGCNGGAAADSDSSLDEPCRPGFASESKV

## CO[C@H]1C[C@@H]2CC[C@@H](C)[C@@](O)(O2)C(=O)C(=O)N2CCCC[C@H]2C(=O)O[C@H]([C@H](C)C[C@@H]2CC[C@@H](OC(=O)NCCOCCOCCOCCOCCOCCOCCOCCOCCC(=O)NCCS(=O)(=O)c3ccc(C(=O)N4CCOc5ccc(-c6ccc(N)nc6)cc5C4)c(C)c3F)[C@H](OC)C2)C[C@@H](O)[C@H](C)/C=C(\C)[C@@H](O)[C@@H](OC)C(=O)[C@H](C)C[C@H](C)/C=C/C=C/C=C/1C [compound 40]
NCI-H2122 NSCLC CDX
  antitumor activity (tumor regressions) in NCI-H2122 CDX model: Neither

## CO[C@H]1C[C@@H]2CC[C@@H](C)[C@@](O)(O2)C(=O)C(=O)N2CCCC[C@H]2C(=O)O[C@H]([C@H](C)C[C@@H]2CC[C@@H](OC(=O)NCCOCCOCCOCCOCCOCCOCCOCCOCCC(=O)N3CCc4cc(Cn5nc(-c6ccc7oc(N)nc7c6)c6c(N)ncnc65)ccc4C3)[C@H](OC)C2)C[C@@H](O)[C@H](C)/C=C(\C)[C@@H](O)[C@@H](OC)C(=O)[C@H](C)C[C@H](C)/C=C/C=C/C=C/1C [compound 38]
[1]
  IC50: 19 nM
[2]
  inhibition at 10 µM: -4.5%
[3]
  inhibition at 10 µM: 3%
[4]
  % Inhibition of Control Values: 3.3%
[5]
  inhibition at 10 µM: -26.1%
[6]
  inhibition at 10 µM: 0.6%
[7]
  inhibition at 10 µM: -8.5%
[8]
  inhibition at 10 µM: 6.5%
[9]
  % Inhibition of Control Values: -8.0%
Lck kinase (h)
  inhibition at 10 µM: 11.3%
Acetylcholinesterase (h)
  inhibition at 10 µM: -15.4%
